Type in all cases: cell-based, human
One data set concerns MM cell lines. Put plainly: Viability of MM cell lines cultured in GSI, propidium iodide staining. Particulars: 1.0 μM in culture. How it is done: (L) Viability of indicated MM-expressing cells as measured by propidium iodide staining of cell lines cultured in 1 μM GSI.
Next, the effect of removing GSI from MM cell culture was examined. […] Finally, the viability of the tested MM cell lines was not affected by addition of 1.0 μM RO429097 to culture (FIG. 3L).

Data set [1] relates to CD19 CAR-T cells co-cultured with Raji or K562/CD19+ target cells. Put plainly: CD19 CAR-T cell viability and effector function in the presence of GSI. On the procedure: (A) CD19 staining of K562 CD19^+ and Raji cells that were cultured with or without GSI for ±12-16 h. Isotype control shown as gray line.
(C) CD19 CAR-T cells were co-cultured with K562/CD19 target cells in media containing various concentrations of RO4929097. RO4929097 inhibits CD19 CAR-T cell effector function at concentrations of 3 μM when co-cultured, as determined by measuring IL-2 (upper panel) and IFNγ (lower panel) production.
(D) IL-2 production by CD19 CAR-T cells cultured with target cells in the presence of increasing concentrations of GSI RO4929097.
(E) IL-2 production by CD19 CAR-T cells cultured with target cells (“K562 CD19”) or control cells (“KS562 BCMA”) in the presence of increasing concentrations of GSI RO4929097. Cells were administered the indicated amounts of the GSI and then washed (empty bars) or not (filled bars).
(F) Data from another experiment showing IL-2 production by CD19 CAR-T cells after overnight co-culture with K562 BCMA^+ or K562 CD19^+ cells following pre-incubation with varying concentrations of GSI. After washing, GSI was either added back in (+/+) or left out of the co-culture (+/−) to assess the reversibility of cytokine production.
(G) Specific lysis, by CD19 CAR-T cells, of the indicated target or control cells in the presence of GSI RO4929097.
(H) Proliferation of CD19 CAR-T cells cultured with CD19-expressing target cells in the presence or absence of GSI or with control cells in the absence of GSI. Cells were stained with CFSE and proliferation was measured by flow cytometry.
(I) Graphic representation of the number of cell divisions of CD19 CAR-T cells in the presence of the indicated concentrations of GSI RO4929097. The width of the horizontal bars represents the proportion of CAR-T cells in culture that divided the indicated number of generations (i.e., 5, 4, 3, 2, 1, or 0 generations) over the course of the experiment.
[…] Cell counts (CD8 staining) during expansion of CD19-specific CAR-T cells with CD19^+ TM LCL cells and exogenous IL-2 in the absence of GSI (circle) or the presence of GSI at 0.5 μM (square) or 5 μM (triangle).
(K) Cell counts of CD19-specific CAR-T cells (CD4:CD8 (1:1) expanded with CD19^+ TM. LCL cells in the absence or presence of GSI as indicated, but without the addition of exogenous IL-2.
(L) IFN-γ concentrations in supernatants of GSI-expanded anti-CD19 CAR CD8^+ T cells following re-stimulation with K562 cells (no antigen), K562 CD19^+ cells, or Raji cells.
(M, N) Production of IFN-γ (M) and IL-2 (N) by the CD4:CD8 anti-CD19 CAR-T cell mixture following re-stimulation with the indicated cell lines in the absence of GSI or the presence of either 0.5 μM or 5 μM GSI.
Without wishing to be bound by theory, a potential caveat of using GSI to augment BCMA on myeloma cells to improve CAR-T cell recognition is that high concentrations of GSI may inhibit T-cell signaling and effector functions. See Eagar et al., Immunity 20(4):407, 2004. To evaluate potential effects of GSI on CAR T cells in a setting where target ligand expression remains stable, CD19 CAR-T cells were co-cultured with Raji or K562/CD19^+ target cells in the presence of GSI (0.01 μM to 100 μM) and measured viability and effector function. Over this concentration range there was no effect on CD19 antigen expression (FIG. 5A) or on CAR-T cell viability after 24 hours (FIG. 5B). […] However, the ability of the CD19 CAR-T cells to specifically kill target cells was not affected by GSI concentration (FIG. 5G). […] To further investigate the dosage effect of GSI on CAR-T cell division, a dose titration of GSI RO4929097 was added to co-cultures of CD19 CAR-T and target cells.

The test system of data set [2] is myeloma cell lines (MM1.R, U266 and 8226). The data set is described as follows: Soluble BCMA (sBCMA) in culture supernatant of myeloma cell lines with GSI, ELISA. How it is done: (I) U266 myeloma cells were washed and plated in culture media in the presence of various concentrations of GSI RO429097 (0.01 μM, 0.1 μM and 1.0 μM). The media supernatant was harvested after 1, 3, 5 and 24 hours and assayed for soluble BCMA (sBCMA) by ELISA. […] To test the effect of GSI on BCMA shedding in MM, three different myeloma cell lines (MM1.R, U266 and 8226) were washed and plated in culture media for 24 hours in the presence of various concentrations of GSI RO429097 (0.01 μM, 0.1 μM and 1.0 μM). The media supernatant was harvested and assayed for sBCMA by ELISA. sBCMA levels decreased in the supernatant in the presence of a GSI in a dose dependent manner (FIGS. 3G & 3H). To examine the effect on soluble BCMA (sBCMA) levels over time, U266 cells were washed and plated in culture media for 1, 3, 5 and 24 hours in the presence of various concentrations of GSI RO429097 (0.01 μM, 0.1 μM and 1.0 μM). The media supernatant was harvested and assayed for soluble BCMA (sBCMA) by ELISA. […] Next, the effect of removing GSI from MM cell culture was examined. […] Finally, the viability of the tested MM cell lines was not affected by addition of 1.0 μM RO429097 to culture (FIG. 3L).

The mark [3] stands for this setting: expanded in 5 μM, 0.5 μM or no GSI.

With `CC(C)(C(=O)NCC(F)(F)C(F)(F)F)C(=O)N[C@@H]1C(=O)Nc2ccccc2-c2ccccc21` [RO4929097], the “viability of MM cell lines” value in the data set with MM cell lines was “not affected”. Further, the “proliferation of CD19 CAR-T cells in response to target cells” value in data set [1] (10 μM GSI vs absence of GSI) is “less effectively”. Moreover, the “expansion of CD19 CAR-T cells” value in data set [1] (8 days in culture with or without exogenous IL-2, GSI 0.5 or 5 μM) is “did not show a decrease in expansion”. For the same molecule, the “CD19 antigen expression on target cells” value in data set [1] (GSI 0.01 μM to 100 μM) is listed as “no effect”. For the same molecule, the CAR-T cell viability result in data set [1] (GSI 0.01 μM to 100 μM, 24 hours) is “no effect”. In addition, the “T cell function (cytokine production, cell lysis activity, proliferation)” value in data set [1] (GSI at therapeutic levels) is listed as “does not affect T cell function”. For the same molecule, in data set [1] (setting [3]), the “IFN-γ production on re-stimulation after expansion in GSI” value was “did not show a significant difference” and the “IL-2 production on re-stimulation after expansion in GSI” value is on record as “not markedly different”. In data set [1] (non-therapeutic dose (10 μM)), the CAR-T cell division result is “detectably inhibit proliferation”. The “specific killing of target cells by CD19 CAR-T cells” value in data set [1] (range of GSI concentrations) was “not affected”. Further, in data set [1] (therapeutic doses of GSI (0.01 μM-1 μM)), the CAR-T cell division result is on record as “essentially unaffected or only slightly affected”. In addition, the “effect of GSI on surface BCMA shedding (reversibility)” value in data set [2] (1.0 μM GSI removed or continued) is listed as “reversible inhibitory effect”. For the same molecule, the “sBCMA levels in supernatant” value in data set [2] (MM1.R, U266 and 8226, 24 hours, 0.01, 0.1 and 1.0 μM) is listed as “decreased”. Besides, in data set [2] (U266, 1, 3, 5 and 24 hours), the “GSI concentration at which BCMA release into supernatant was decreased” value is “at least 0.01 μM”. Also, the “soluble BCMA levels in supernatant over time” value in data set [2] (U266, 1, 3, 5 and 24 hours, 0.01, 0.1 and 1.0 μM) was “dose-dependent decrease”. The “supernatant sBCMA following removal of GSI” value in data set [2] (after removal of 1.0 μM GSI vs continued GSI) was “increased when the GSI was removed”.

The values are drawn from patent publication US11845803B2, “Combination therapies for treatment of BCMA-related cancers and autoimmune disorders” (Fred Hutchinson Cancer Center, priority 2017, dated 2023).
